Results as given in PMC9579956 (RSC Medicinal Chemistry, 2022).
Several values for one entry are separate records, joined by “and”; a condition that tells them apart may be missing. Equal entries are not always repeated.

Experiments:
[1] = molecular target: T1, Mycobacterium thermoresistible (Mtr) LpqY (Mycolicibacterium thermoresistibile, UniProt G7CES0); experiment: Affinity studies with microscale thermophoresis (MST); assay type: binding; details: for Binding to LpqY (qualitative): Kd could not be determined
T1 sequence (G7CES0 29-471): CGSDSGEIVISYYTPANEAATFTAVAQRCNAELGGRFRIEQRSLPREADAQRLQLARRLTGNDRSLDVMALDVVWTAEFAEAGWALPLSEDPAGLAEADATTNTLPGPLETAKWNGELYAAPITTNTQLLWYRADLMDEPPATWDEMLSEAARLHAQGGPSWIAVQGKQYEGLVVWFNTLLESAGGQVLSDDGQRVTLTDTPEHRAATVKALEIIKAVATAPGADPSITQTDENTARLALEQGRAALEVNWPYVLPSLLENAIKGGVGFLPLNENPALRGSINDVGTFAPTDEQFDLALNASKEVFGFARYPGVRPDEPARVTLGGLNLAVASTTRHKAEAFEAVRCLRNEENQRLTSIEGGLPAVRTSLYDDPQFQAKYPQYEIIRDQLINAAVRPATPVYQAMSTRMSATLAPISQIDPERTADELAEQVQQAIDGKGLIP

[2] = molecular target: T1, Mycobacterium thermoresistible (Mtr) LpqY; assay type: binding; details: for Screen signal/noise ratio (MST S/N): compound 100 μM, LpqY 500 nM, 10% DMSO, duplicate; for Pathogen Box screen signal/noise ratio: single dose MST screen against LpqY
[3] = molecular target: T1, Mycobacterium thermoresistible (Mtr) LpqY; assay type: binding; details: for Hit validation Binding score: MST re-evaluation of hits against LpqY; for Validation binding score (MST): quadruplicate, new batch of LpqY
[4] = Solubility in aqueous buffer (observation in MST affinity assay); assay type: physicochemical
Excerpt: The top five hits that were commercially available were selected for further characterisation and the binding affinities determined with LpqY (Fig. 4, Table S2 ^†).

SMILES	Binding to LpqY (qualitative) ([1]; MST)	Screen signal/noise ratio (MST S/N) [2]	Pathogen Box screen signal/noise ratio [2]	Hit validation Binding score [3]	Validation binding score (MST) [3]	Kd [1] [µM]	fold increase of affinity (Kd) compared to trehalose ([1]; MST) [fold]	Solubility in aqueous buffer [4]	fold decrease in affinity compared to trehalose ([1]; MST) [fold]
COc1cc(NC(C)CCCN)c2ncccc2c1 (centres unmarked) [MMV000023, Primaquine, reference compound]	Concentration dependent binding	10.0	10.0	21.6	21.6				
O=C(Nc1cccc(Cl)c1)c1cnc(N2CCN(c3ccncc3)CC2)c(Cl)c1 [MMV024406, 5-chloro-N-(3-chlorophenyl)-6-(4-pyridin-4-ylpiperazin-1-yl)pyridine-3-carboxamide]		5.2	5.2	2.3	2.3				
CNC(=O)C1Cc2c([nH]c3cc(Cl)ccc23)C2(CCN(CCc3ccccc3)CC2)N1 (centres unmarked) [MMV031011, 7-chloro-N-methyl-1'-(2-phenylethyl)spiro[2,3,4,9-tetrahydropyrido[3,4-b]indole-1,4'-piperidine]-3-carboxamide]		5.7	5.7	3.7	3.7				
CCOC(=O)NC(=O)c1ccsc1NC(=O)c1nc2ccccc2s1 [MMV090930, TCA1, reference compound]		29.5	29.5	91.5	> 5	14.2 ± 0.8	~2.5		
COc1ccc(OC(C)C(=O)Nc2ccc(Cl)cc2C)cc1 (centres unmarked) [MMV202458, N-(4-chloro-2-methylphenyl)-2-(4-methoxyphenoxy)propanamide]		5.5	5.5	6.3	6.3 and > 5				
COc1ccc(N(CCc2cccc(C)n2)C(=O)C2CCCCC2)cc1 [MMV675996, N-(4-methoxyphenyl)-N-[2-(6-methylpyridin-2-yl)ethyl]cyclohexanecarboxamide]		6.0	6.0	4.9	4.9				
COc1ccccc1OCCCCn1c(C2CC2)nc2ccccc21 [MMV676474, 2-cyclopropyl-1-[4-(2-methoxyphenoxy)butyl]benzimidazole]		6.0	6.0	6.2	6.2 and > 5				
Nc1cccnc1Nc1ccc(Cl)cc1 [MMV676524, 2-N-(4-chlorophenyl)pyridine-2,3-diamine]	Concentration dependent binding	6.4	6.4	12.2				poor solubility	
O=C(NCCc1c[nH]c2ccccc12)c1cc2ccccc2oc1=O [MMV676539, N-[2-(1H-indol-3-yl)ethyl]-2-oxochromene-3-carboxamide]		6.2	6.2	6.4	6.4 and > 5				
CNC(=O)c1nn(C)c2c1C(C)(C)Cc1cnc(Nc3ccc(N4CCN(C)CC4)cc3)nc1-2 [MMV676602, Milciclib, reference compound]	Concentration dependent binding	9.5	9.5	13.6	> 12			poor solubility	
CC1(C)OB(O)c2ccc(C3=NOC(c4cc(Cl)c(F)c(Cl)c4)(C(F)(F)F)C3)cc21 (centres unmarked) [MMV687775, 5-(3,5-dichloro-4-fluorophenyl)-3-(1-hydroxy-3,3-dimethyl-2,1-benzoxaborol-5-yl)-5-(trifluoromethyl)-4H-1,2-oxazole]		6.6	6.6	3.9	3.9				
COc1cc(C2=NCCN2)cc2cc(-c3ccc(C4=NCCN4)cc3)oc12 [MMV688362, 2-[4-[5-(4,5-dihydro-1H-imidazol-2-yl)-7-methoxy-1-benzofuran-2-yl]phenyl]-4,5-dihydro-1H-imidazole]		12.6	12.6	14.8					
CS(=O)(=O)c1ccccc1C(=O)N(Cc1ccccc1)c1ccccc1 [MMV688798, N-benzyl-2-methylsulfonyl-N-phenylbenzamide]		5.2	5.2	1.3	1.3				
CC(=O)Oc1ccccc1C(=O)Nc1ncc([N+](=O)[O-])s1 [MMV688991, Nitazoxanide, reference compound]		8.3	8.3	20.0		85.4			~2
